For 1 compound, Km results are on record in publication PMC4864966, “Two unexpected promiscuous activities of the iron–sulfur protein IspH in production of isoprene and isoamylene” (Microbial Cell Factories, 2016).

The assay relates to T1, IspH.
T1 construct: complete ORF in pET-28a(+) NcoI/XhoI, C-terminal His-tag, E. coli BL21(DE3) with isc operon, [4Fe-4S] cluster, Ni-NTA purified anaerobically
The assay can be described thus: headspace GC of isoamylene (2-methyl-2-butene and 3-methyl-1-butene) formation; Michaelis-Menten and Lineweaver-Burk. Format: biochemical, Bacillus sp. N16-5. Particulars: 1 mM NADPH, 20 µM Fd, 5 µM FNR, 2 mM DTT, 20 mM Tris-HCl pH 7.8, 150 mM NaCl, 37 °C, anaerobic; DMAPP 0.1 to 1 mM.

With `CC(C)=CCOP(=O)(O)OP(=O)(O)O` [DMAPP], the Km is around 275 µM.
